Data on twelve molecules can be found in patent publication US20060003976A1, “Cholesterol/bile acid/bile acid derivative-modified therapeutic drug compounds” (priority 2004, published 2006).

The structures appear in SMILES notation. Where a name gives a salt, the structure may show the parent alone. Read-outs that look alike come from different tables or passages of the source. A value given as a limit tells only on which side of the number the result lay.

Data set [1] relates to HCT-15 (ATCC #CCL-225) (colorectal). Format: cell-based. Particulars: for GI50 (drug concentration that produces 50% cell growth inhibition): result in words; for GI50: read-out: GI50 (drug concentration that produces 50% cell growth inhibition).
In data set [2] the test system is SKOV-3 (ATCC #HTB-77) (ovarian). In kind it is cell-based. The following applies: for GI50 (drug concentration that produces 50% cell growth inhibition): result in words; for GI50: read-out: GI50 (drug concentration that produces 50% cell growth inhibition).
For data set [3], the system named is NCI-H460 (ATCC #HTB-177) (non-small cell lung). In kind it is cell-based. The following applies: for GI50 (drug concentration that produces 50% cell growth inhibition): result in words; for GI50: read-out: GI50 (drug concentration that produces 50% cell growth inhibition).
Data set [4] deals with HCT-116 (ATCC #CCL-247) (colorectal). Format: cell-based. The following applies: for GI50 (drug concentration that produces 50% cell growth inhibition): result in words; for GI50: read-out: GI50 (drug concentration that produces 50% cell growth inhibition).
Data set [5] has as its system SKOV-3 (ATCC #HTB-77) (ovarian). Particulars: SKOV-3 (OVARIAN); NCI GI50 values; read-out: GI50 (drug concentration that produces 50% cell growth inhibition); cited from earlier work.
Data set [6] has as its system HCT-116 (ATCC #CCL-247) (colorectal). Particulars: HCT-116 (COLON); NCI GI50 values; read-out: GI50 (drug concentration that produces 50% cell growth inhibition); cited from earlier work.
Data set [7] relates to NCI-H460 (ATCC #HTB-177) (non-small cell lung). The following applies: H460 (NSCLC); NCI GI50 values; read-out: GI50 (drug concentration that produces 50% cell growth inhibition); cited from earlier work.
Data set [8] in a line: Solubility comparison in various solvents.
Procedure: Compounds were dissolved in each solvent under constant stirring and temperature.
In data set [9] the test system is HCT-15 (ATCC #CCL-225) (colorectal). Particulars: HCT-15 (COLON); NCI GI50 values; read-out: GI50 (drug concentration that produces 50% cell growth inhibition); cited from earlier work.

As to `CC[C@@]1(OC(=O)CC(C)CC(=O)O[C@H]2CC[C@@]3(C)C(=CC[C@H]4[C@@H]5CC[C@H]([C@H](C)CCCC(C)C)[C@@]5(C)CC[C@@H]43)C2)C(=O)OCc2c1cc1n(c2=O)Cc2cc3ccccc3nc2-1` (stereo partly drawn) [Cholesterol 3-methyl glutaric-20-CPT, Cholesterol 3-Methyglutaric-20-Camptothecin], the “GI50 (drug concentration that produces 50% cell growth inhibition)” value in [1] (HCT-15 (COLON), 48 hours) is “poor”; in data set [2] (SKOV-3 (OVARIAN), 48 hours) it was “poor”; in data set [3] (H460 (NSCLC), 48 hours), “poor”; in data set [4] (HCT-116 (COLON), 48 hours), “poor”.

`CCc1c2c(nc3ccc(OC(=O)CC(C)CC(=O)O[C@H]4CC[C@@]5(C)C(=CC[C@H]6[C@@H]7CC[C@H]([C@H](C)CCCC(C)C)[C@@]7(C)CC[C@@H]65)C4)cc13)-c1cc3c(c(=O)n1C2)COC(=O)[C@]3(O)CC` (stereo partly drawn) [Cholesterol 3-methyl glutaric-10-SN38, Cholesterol 3-methylglutaric-10-(7-ethyl-10-hydroxycamptothecin)]: the GI50 in data set [1] (HCT-15 (COLON), 48 hours) amounted to 2880 nM; in [3] (H460 (NSCLC), 48 hours), 245 nM; in [4] (HCT-116 (COLON), 48 hours) it was 263 nM. Moreover, the “GI50 (drug concentration that produces 50% cell growth inhibition)” value in data set [2] (SKOV-3 (OVARIAN), 48 hours) is given as “poor”.

In the case of `CC[C@@]1(OC(=O)CCC(=O)O[C@H]2CC[C@@]3(C)C(=CC[C@H]4[C@@H]5CC[C@H]([C@H](C)CCCC(C)C)[C@@]5(C)CC[C@@H]43)C2)C(=O)OCc2c1cc1n(c2=O)Cc2cc3ccccc3nc2-1` [Cholesterol succinate-20-CPT, Cholesterol succinate-20-camptothecin], the GI50 in [1] (HCT-15 (COLON), 48 hours) is more than 5000 nM; in data set [2] (SKOV-3 (OVARIAN), 48 hours) it was more than 5000 nM; in data set [3] (H460 (NSCLC), 48 hours), more than 5000 nM; in data set [4] (HCT-116 (COLON), 48 hours), more than 5000 nM.

As for `CCc1c2c(nc3ccc(OC(=O)N4CCC(N5CCCCC5)CC4)cc13)-c1cc3c(c(=O)n1C2)COC(=O)[C@]3(O)CC` [Irinotecan, irinotecan], the GI50 in data set [5] is 17 nM; in data set [6], 7900 nM; in data set [7], 5010 nM.

On to `CC[C@@]1(OC(=O)O[C@H]2CC[C@@]3(C)C(=CC[C@H]4[C@@H]5CC[C@H]([C@H](C)CCCC(C)C)[C@@]5(C)CC[C@@H]43)C2)C(=O)OCc2c1cc1n(c2=O)Cc2cc3ccccc3nc2-1` [Cholesterol formate-20-CPT, Cholesterol Formate-20-camptothecin], for which the Solubility is on record as less than 1 mg/g in data set [8] (Acetonitrile, r.t.); more than 335 mg/g in [8] (Chloroform, r.t.); more than 2 mg/g in [8] (Soybean Oil USP, r.t.); more than 32 mg/g in [8] (Vitamin E USP/NF, 65 °C). Further, the “GI50 (drug concentration that produces 50% cell growth inhibition)” value in data set [1] (HCT-15 (COLON), 48 hours) is “poor”; in data set [2] (SKOV-3 (OVARIAN), 48 hours), “poor”; in [3] (H460 (NSCLC), 48 hours) it was “poor”; in data set [4] (HCT-116 (COLON), 48 hours), “poor”.

For the molecule `CCc1c2c(nc3ccc(OC(=O)CCC(=O)O[C@H]4CC[C@@]5(C)C(=CC[C@H]6[C@@H]7CC[C@H]([C@H](C)CCCC(C)C)[C@@]7(C)CC[C@@H]65)C4)cc13)-c1cc3c(c(=O)n1C2)COC(=O)[C@]3(O)CC` [Cholesterol succinate-10-SN38, Cholesterol succinate-10-(7-ethyl-10-hydroxycamptothecin)], the GI50 in [1] is 635 nM; in data set [2], 708 nM; in data set [3], 1660 nM; in data set [4] it was 339 nM.

As to `CCc1c2c(nc3ccc(OC(=O)O[C@H]4CC[C@@]5(C)C(=CC[C@H]6[C@@H]7CC[C@H]([C@H](C)CCCC(C)C)[C@@]7(C)CC[C@@H]65)C4)cc13)-c1cc3c(c(=O)n1C2)COC(=O)[C@]3(O)CC` [Cholesterol formate-10-SN38, Cholesterol formate-10-(7-ethyl-10-hydroxycamptothecin)], the Solubility is listed as less than 1 mg/g in data set [8] (Acetonitrile, r.t.); more than 40 mg/g in [8] (Chloroform, r.t.); less than 1 mg/g in [8] (Soybean Oil USP, r.t.); more than 14 mg/g in data set [8] (Vitamin E USP/NF, 65 °C). The GI50 worked out at 1910 nM in [1] (HCT-15 (COLON), 48 hours); 51.4 nM in data set [2] (SKOV-3 (OVARIAN), 48 hours); 10.5 nM in [3] (H460 (NSCLC), 48 hours); 631 nM in data set [4] (HCT-116 (COLON), 48 hours).

With `CCc1c2c(nc3ccc(OC(=O)CC4(CC(=O)O[C@H]5CC[C@@]6(C)C(=CC[C@H]7[C@@H]8CC[C@H]([C@H](C)CCCC(C)C)[C@@]8(C)CC[C@@H]76)C5)CCCC4)cc13)-c1cc3c(c(=O)n1C2)COC(=O)[C@]3(O)CC` [Cholesterol 3,3-tetramethylene glutaric-10-(7-ethyl-10-hydroxycamptothecin)], the GI50 in data set [1] (HCT-15 (COLON), 48 hours) was determined as 12600 nM; in data set [2] (SKOV-3 (OVARIAN), 48 hours) it was 295 nM; in data set [3] (H460 (NSCLC), 48 hours), 871 nM; in data set [4] (HCT-116 (COLON), 48 hours) it was 2000 nM.

Regarding `CC[C@@]1(OC(=O)CC2(CC(=O)O[C@H]3CC[C@@]4(C)C(=CC[C@H]5[C@@H]6CC[C@H]([C@H](C)CCCC(C)C)[C@@]6(C)CC[C@@H]54)C3)CCCC2)C(=O)OCc2c1cc1n(c2=O)Cc2cc3ccccc3nc2-1` [Cholesterol 3,3-tetramethylene glutaric-20-camptothecin], the GI50 in data set [1] (HCT-15 (COLON), 48 hours) is approximately 10000 nM; in data set [3] (H460 (NSCLC), 48 hours), approximately 10000 nM; in [4] (HCT-116 (COLON), 48 hours) it was approximately 10000 nM. Moreover, the “GI50 (drug concentration that produces 50% cell growth inhibition)” value in data set [2] (SKOV-3 (OVARIAN), 48 hours) is reported as “poor”.

For the molecule `CC[C@@]1(O)C(=O)OCc2c1cc1n(c2=O)Cc2cc3c(CN(C)C)c(O)ccc3nc2-1` [Topotecan, topotecan], the GI50 in [9] was 501 nM; in data set [5], 63 nM; in [6] it was 39.8 nM; in data set [7] it was 19.9 nM.

For the molecule `CC[C@@]1(O)C(=O)OCc2c1cc1n(c2=O)Cc2cc3ccccc3nc2-1` [Camptothecin, camptothecin], the GI50 in data set [9] was 160 nM; in data set [5], 25 nM; in [6] it was 40 nM; in data set [7] it was 16 nM. In addition, the Solubility in data set [8] (Acetonitrile, r.t.) is recorded as 0.09 mg/g; in [8] (Soybean Oil USP, r.t.), 0.00 mg/g.

Consider `CCc1c2c(nc3ccc(O)cc13)-c1cc3c(c(=O)n1C2)COC(=O)[C@]3(O)CC` [SN38, 7-ethyl-10-hydroxycamptothecin], for which the GI50 in data set [9] was 7.9 nM; in data set [5], 1 nM; in data set [6] it was 21 nM; in data set [7], 1.4 nM.
